# Measurements as given in patent US20160114062A1, “TREATMENT OF IMMUNE, INFLAMMATORY AND DEGENERATIVE ARTHRITIDES WITH TIN-117m” (RHEUMCO LLC, priority 2013, published 2016).
# Several values for one entry are separate records, joined by “and”; a condition that tells them apart may be missing. Equal entries are not always repeated.
# Legend:
# [1] = Biodistribution, 2nd study (HSA Sn-117m annexin) in collagen-induced arthritic rats; type: in vivo, Rat; settings: dose 50 (mCi), at sacrifice Day 14
# Protocol: (§1) In order to test the efficacy of the present invention, a standard arthritic rat model was employed. Specifically, rodents were injected with collagen, which induced a reaction similar to rheumatoid arthritis. […] Two different studies were conducted.
# (§2) At around day 14, the animals were sacrificed and tissues sent for histological analyses.
# [2] = test system: standard arthritic rat model (collagen induced rheumatoid arthritis-like); experiment: Histopathology of knees, 2nd study (HSA Sn-117m annexin); type: in vivo; settings: for Bone Resorption Score / Cartilage Damage Score / Inflammation Score / Pannus Score: score 0-5, 0 = normal, 5 = severe
# Protocol: as §1, §2
# [3] = L knee (injected), ~50 uCi into L synovium
# [4] = R knee, ~50 uCi into L synovium
# [5] = mean of all animals, both knees, both routes, score 0-5
substance,measurement,setting,value
Sn-117m Annexin: High specific activity tin-117m attached to annexin V through an aminobenzyl DOTA linker,Right Leg (% ID),[1]; L Synovium injection,0.1 % ID
same,Left leg (% ID),[1]; Retro-orbital injection,0.1 % ID
same,Right Leg (% ID),[1]; Retro-orbital injection,0.1 % ID
same,Summed Histopathology Scores,[2]; [3],9
same,Bone Resorption Score,[2]; [3],1
same,Cartilage Damage Score,[2]; [3],2
same,Inflammation Score,[2]; [3],5
same,Pannus Score,[2]; [3],1
same,Summed Histopathology Scores,"[2]; L knee, ~50 uCi retro-orbital",8 and 4
same,Cartilage Damage Score,"[2]; L knee, ~50 uCi retro-orbital",1 and 0.5
same,Inflammation Score,"[2]; L knee, ~50 uCi retro-orbital",5 and 3
same,Pannus Score,"[2]; L knee, ~50 uCi retro-orbital",1 and 0.5
same,Summed Histopathology Scores,[2]; [4],9 and 7.5
same,Bone Resorption Score,[2]; [4],1 and 0.5
same,Cartilage Damage Score,[2]; [4],2 and 1
same,Inflammation Score,[2]; [4],5
same,Pannus Score,[2]; [4],1
same,Cartilage Damage Score,"[2]; R knee, ~50 uCi retro-orbital",0.5
same,Pannus Score,"[2]; R knee, ~50 uCi retro-orbital",0.5
same,Effectiveness (in words),"[2]; administered directly into the synovium, second study",appears to be effective
same,"Summed Histopathology Scores, Mean","[2]; mean of all animals, both knees, both routes",7.04
same,"Bone Resorption Score, Mean",[2]; [5],0.75
same,"Cartilage Damage Score, Mean",[2]; [5],1.33
same,"Inflammation Score, Mean",[2]; [5],4.04
same,"Pannus Score, Mean",[2]; [5],0.92
